# From Sander's compilation of Henry's law constants (doi:10.1007/bf02268351)
# Assay: Henry solubility constant Hcp at 298.15 K (mol/(m3 Pa))
# Conditions: reference: Kolb et al. (1992)
row,Compound,Henry solubility constant Hcp
1,"CC(Cl)(Cl)Cl [1,1,1-trichloroethane]",0.00079
2,"Cc1ccccc1C [1,2-dimethylbenzene]",0.0014
3,CC(C)O [2-propanol],0.79
4,CC(=O)CC(C)C [4-methyl-2-pentanone],0.043
5,CCCCOC(C)=O [butyl ethanoate],0.023
6,C1CCCCC1 [cyclohexane],5.4e-05
7,CCOC(C)=O [ethyl ethanoate],0.044
8,CCCCCC [hexane],0.00024
9,Cc1ccccc1 [methylbenzene],0.0016
10,ClC(Cl)=C(Cl)Cl [tetrachloroethene],0.00081
